The values below are quoted from earlier work in PubChem BioAssay AID1259409 (Chemical Carcinogenesis Research Information System (CCRIS), 2018).

The structures appear in SMILES notation.

In this data set the test system is rodent chemically induced tumor inhibition, incidence and multiplicity. Description: CCRIS tumor inhibitor studies.

For the compound `COc1cc(/C=C/C(=O)CC(=O)/C=C/c2ccc(O)c(OC)c2)ccc1O`, the “tumour outcome (control, treated, inhibition, significance)” value by setting is: (Carcinogen: BENZO[A]PYRENE, 50-32-8, Dose [Inhibitor]: 0, 10 UMOL IN ACETONE APPLIED 120, 60 AND 5 MIN PRIOR TO CARCINOGEN DOSE (STUDY DURATION: 24 WK), Route [Inhibitor]: DERMAL, Species: MOUSE, Strain/Sex: CD-1/FEMALE, Target Tissue: Type of Lesion: SKIN: TUMORS, Dose [Carcinogen]: 200 NMOL ONCE, Promoter: 12-O-TETRADECANOYLPHORBOL-13-ACETATE, 16561-29-8) 96%, 77%, 20%, not calculated; (Carcinogen: METHYL(ACETOXYMETHYL)NITROSAMINE, 56856-83-8, Dose [Inhibitor]: 0, 5% IN DIET FOR DURATION OF STUDY BEGINNING 2 WK PRIOR TO CARCINOGEN TREATMENT (STUDY DURATION: 13 MO), Route [Inhibitor]: ORAL, Species: HAMSTER, Strain/Sex: SYRIAN/FEMALE, Target Tissue: Type of Lesion: ORAL: CAVITY, Dose [Carcinogen]: 2 MG/KG BW APPLIED TO RIGHT CHEEK POUCH 2/MO FOR 6 MO, Promoter: NONE USED) 14/15 (93%), 3/16 (19%), 80%, p<0.001; (Carcinogen: N-ETHYL-N'-NITRO-N-NITROSOGUANDINDE, 4245-77-6, Dose [Inhibitor]: 0, 1% COMMERCIAL GRADE CURCUMIN IN DIET FOR 16 WK BEGINNING 1 WK POST CARCINOGEN TREATMENT (STUDY DURATION: 20 WK), Route [Inhibitor]: ORAL, Species: MOUSE, Strain/Sex: C57BL/MALE, Target Tissue: Type of Lesion: DUODENUM: ADENOMA, Dose [Carcinogen]: 120 MG/L IN DRINKING WATER FOR 4 WK, Promoter: NONE USED) 45%, 28%, 38%, not significant; (Carcinogen: N-ETHYL-N'-NITRO-N-NITROSOGUANIDINE, 4245-77-6, Dose [Inhibitor]: 0, 0.5% COMMERCIAL GRADE CURCUMIN IN DIET FOR 16 WK BEGINNING 1 WK POST CARCINOGEN TREATMENT (STUDY DURATION: 20 WK), Route [Inhibitor]: ORAL, Species: MOUSE, Strain/Sex: C57BL/MALE, Target Tissue: Type of Lesion: DUODENUM: ADENOCARCINOMA, Dose [Carcinogen]: 120 MG/L IN DRINKING WATER FOR 4 WK, Promoter: NONE USED) 6%, 4%, 33%, not significant; (Carcinogen: N-ETHYL-N'-NITRO-N-NITROSOGUANIDINE, 4245-77-6, Dose [Inhibitor]: 0, 0.5% COMMERCIAL GRADE CURCUMIN IN DIET FOR 16 WK BEGINNING 1 WK POST CARCINOGEN TREATMENT (STUDY DURATION: 20 WK), Route [Inhibitor]: ORAL, Species: MOUSE, Strain/Sex: C57BL/MALE, Target Tissue: Type of Lesion: DUODENUM: ADENOMA, Dose [Carcinogen]: 120 MG/L IN DRINKING WATER FOR 4 WK, Promoter: NONE USED) 45%, 20%, 56%, not significant; (Carcinogen: N-ETHYL-N'-NITRO-N-NITROSOGUANIDINE, 4245-77-6, Dose [Inhibitor]: 0, 1% COMMERCIAL GRADE CURCUMIN IN DIET FOR 16 WK BEGINNING 1 WK POST CARCINOGEN TREATMENT (STUDY DURATION: 20 WK), Route [Inhibitor]: ORAL, Species: MOUSE, Strain/Sex: C57BL/MALE, Target Tissue: Type of Lesion: DUODENUM: ADENOCARCINOMA, Dose [Carcinogen]: 120 MG/L IN DRINKING WATER FOR 4 WK, Promoter: NONE USED) 6%, 4%, 33%, not significant. Besides, the “tumour outcome (control, treated, inhibition, significance)” value reads like this: (Carcinogen: N-ETHYL-N'-NITRO-N-NITROSOGUANIDINE, 4245-77-6, Dose [Inhibitor]: 0, 2% COMMERCIAL GRADE CURCUMIN IN DIET FOR 16 WK BEGINNING 1 WK POST CARCINOGEN TREATMENT (STUDY DURATION: 20 WK), Route [Inhibitor]: ORAL, Species: MOUSE, Strain/Sex: C57BL/MALE, Target Tissue: Type of Lesion: DUODENUM: ADENOCARCINOMA, Dose [Carcinogen]: 120 MG/L IN DRINKING WATER FOR 4 WK, Promoter: NONE USED) 6%, 5%, 17%, not significant; (Carcinogen: N-ETHYL-N'-NITRO-N-NITROSOGUANIDINE, 4245-77-6, Dose [Inhibitor]: 0, 2% COMMERCIAL GRADE CURCUMIN IN DIET FOR 16 WK BEGINNING 1 WK POST CARCINOGEN TREATMENT (STUDY DURATION: 20 WK), Route [Inhibitor]: ORAL, Species: MOUSE, Strain/Sex: C57BL/MALE, Target Tissue: Type of Lesion: DUODENUM: ADENOMA, Dose [Carcinogen]: 120 MG/L IN DRINKING WATER FOR 4 WK, Promoter: NONE USED) 45%, 27%, 40%, not significant; (Carcinogen: N-METHYL-N'-NITRO-N-NITROSOGUANIDINE, 70-25-7, Route [Inhibitor]: 0, 0.05% IN DIET FOR 55 WK BEGINNING IMMEDIATELY POST-CARCINOGEN TREATMENT, THEN SWITCHED TO BASAL DIET FOR 4 WK (STUDY, Species: RAT, Strain/Sex: WISTAR/MALE, Target Tissue: Type of Lesion: GLANDULAR STOMACH: ADENOCARCINOMA, Dose [Carcinogen]: 100 PPM IN DRINKING WATER FOR 8 WK, Promoter: SODIUM CHLORIDE, 7647-14-5) 1/29 (3%), 2/29 (7%), -133%, not significant; (Carcinogen: N-METHYL-N'-NITRO-N-NITROSOGUANIDINE, 70-25-7, Route [Inhibitor]: 0, 0.2% IN DIET FOR 55 WK BEGINNING IMMEDIATELY POST-CARCINOGEN TREATMENT, THEN SWITCHED TO BASAL DIET FOR 4 WK (STUDY D, Species: RAT, Strain/Sex: WISTAR/MALE, Target Tissue: Type of Lesion: GLANDULAR STOMACH: ADENOCARCINOMA, Dose [Carcinogen]: 100 PPM IN DRINKING WATER FOR 8 WK, Promoter: SODIUM CHLORIDE, 7647-14-5) 1/29 (3%), 2/30 (7%), -133%, not significant; (Carcinogen: NONE USED, Dose [Inhibitor]: 0, 2% IN DIET FROM 12 MO OF AGE (STUDY DURATION: 15 MO), Route [Inhibitor]: ORAL, Species: MOUSE, Strain/Sex: C3H/FEMALE, Target Tissue: Type of Lesion: MAMMARY GLAND: TUMOR, Promoter: NONE USED) 12/20 (60%), 8/18 (44%), 27%, not calculated; (Carcinogen: NONE USED, Dose [Inhibitor]: 0, 5% IN DIET FROM 6 MO OF AGE (STUDY DURATION: 15 MO), Route [Inhibitor]: ORAL, Species: MOUSE, Strain/Sex: C3H/FEMALE, Target Tissue: Type of Lesion: MAMMARY GLAND: TUMOR, Promoter: NONE USED) 12/20 (60%), 0/15 (0%), 100%, not calculated. The “tumour outcome (control, treated, inhibition, significance)” value is recorded as 12/20 (60%), 7/21 (33%), 45%, not calculated (Carcinogen: NONE USED, Dose [Inhibitor]: 0, 5% IN DIET FROM 8 MO OF AGE (STUDY DURATION: 15 MO), Route [Inhibitor]: ORAL, Species: MOUSE, Strain/Sex: C3H/FEMALE, Target Tissue: Type of Lesion: MAMMARY GLAND: TUMOR, Promoter: NONE USED) and 12/20 (60%), 5/17 (29%), 52%, not calculated (Carcinogen: NONE USED, Dose [Inhibitor]: O, 5% IN DIET FROM 12 MO OF AGE (STUDY DURATION: 15 MO), Route [Inhibitor]: ORAL, Species: MOUSE, Strain/Sex: C3H/FEMALE, Target Tissue: Type of Lesion: MAMMARY GLAND: TUMOR, Promoter: NONE USED).
